Source: patent US20230017045A1, “PYRIDINE AND PYRIMIDINE CARBOXYLATE HERBICIDES AND METHODS OF USE THEREOF” (Dow AgroSciences LLC, priority 2017, published 2023)
Read-outs that look alike come from different tables or passages of the source.

System: test plant species
Experiment: Post-emergent herbicidal activity test (greenhouse, foliar spray, visual growth reduction)
Type: in vivo
Details: post-emergence, 336 h, 140 g ai/ha
In short: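 Seedlings were raised 7-21 d in a greenhouse under a 15 h photoperiod until the first or second true leaf. Each compound, dissolved in acetone:DMSO 97:3 and diluted into a surfactant-containing spray mixture, was then applied at 187 L/ha. Plants were subirrigated, and growth reduction was scored visually at 14 d.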

[1] = ECHCG: barnyardgrass (Echinochloa crus-galli), 14 days after application, read-out: Visual Growth Reduction (%) 14 Days After Application, ECHCG
[2] = IPOHE: ivy-leaf morning glory (Ipomoea hederacea), 14 days after application, read-out: Visual Growth Reduction (%) 14 Days After Application, IPOHE
[3] = KCHSC: kochia (Bassia scoparia), 14 days after application, read-out: Visual Growth Reduction (%) 14 Days After Application, KCHSC
[4] = ORYSA: rice (Oryza sativa), 14 days after application, read-out: Visual Growth Reduction (%) 14 Days After Application, ORYSA
[5] = SETFA: giant foxtail (Setaria faberi), 14 days after application, read-out: Visual Growth Reduction (%) 14 Days After Application, SETFA
[6] = SORVU: grain sorghum (Sorghum vulgare), 14 days after application, read-out: Visual Growth Reduction (%) 14 Days After Application, SORVU
[7] = STEME: common chickweed (Stellaria media), 14 days after application, read-out: Visual Growth Reduction (%) 14 Days After Application, STEME
[8] = TRZAS: wheat, spring (Triticum aestivum), 14 days after application, read-out: Visual Growth Reduction (%) 14 Days After Application, TRZAS
[9] = blackgrass (Alopecurus myosuroides), 14 Days After Application, read-out: Visual Growth Reduction (%) ALOMY
[10] = canada thistle (Cirsium arvense), 14 Days After Application, read-out: Visual Growth Reduction (%) CIRAR
[11] = crabgrass (Digitaria sanguinalis), 14 Days After Application, read-out: Visual Growth Reduction (%) DIGSA
[12] = lambsquarters (Chenopodium album), 14 Days After Application, read-out: Visual Growth Reduction (%) CHEAL
[13] = redroot pigweed (Amaranthus retroflexus), 14 Days After Application, read-out: Visual Growth Reduction (%) AMARE
[14] = wild oat (Avena fatua), 14 Days After Application, read-out: Visual Growth Reduction (%) AVEFA
[15] = yellow nutsedge (Cyperus esculentus), 14 Days After Application, read-out: Visual Growth Reduction (%) CYPES

Measured: pest or weed control at 140 g/ha

COC(=O)c1nc(-c2cc(F)c3c(c2)OC(F)(F)O3)c(F)cc1Cl [F240, Methyl 3-chloro-5-fluoro-6-(2,2,7-trifluorobenzo[d][1,3]dioxol-5-yl)picolinate]
0 to 29%: [1] | [3] | [4] | [5] | [7] | [8] | [9] | [10] | [14] | [15]
95 to 100%: [2] | [11]
60 to 74%: [12]
30 to 44%: [13]
75 to 84%: [6]

COC(=O)c1nc(-c2cc(F)c(C(F)(F)F)cc2Cl)c(F)cc1Cl [F241, Methyl 3-chloro-6-(2-chloro-5-fluoro-4-(trifluoromethyl)phenyl)-5-fluoropicolinate]
75 to 84%: [8]
60 to 74%: [1] | [9] | [15]
85 to 94%: [14]
95 to 100%: [2] | [3] | [5] | [6] | [10] | [11] | [12] | [13]
0 to 29%: [4] | [7]

COC(=O)c1nc(-c2cccc3c2OC(F)(F)O3)ccc1Cl [F242, Methyl 3-chloro-6-(2,2-difluorobenzo[d][1,3]dioxol-4-yl)picolinate]
0 to 29%: [1] | [2] | [3] | [4] | [5] | [7] | [8] | [9] | [10] | [11] | [13] | [14] | [15]
75 to 84%: [6]
60 to 74%: [12]

COC(=O)c1nc(-c2cc(F)c(C(F)(F)F)cc2Cl)ccc1Cl [F243, Methyl 3-chloro-6-(2-chloro-5-fluoro-4-(trifluoromethyl)phenyl)picolinate]
75 to 84%: [3] | [14]
95 to 100%: [1] | [2] | [5] | [6] | [10] | [11] | [12] | [13]
0 to 29%: [4] | [7]
85 to 94%: [8] | [9] | [15]

COC(=O)c1cc2c(c(-c3nc(C(=O)OC)c(Cl)cc3F)c1)OC(F)(F)O2 [F244, Methyl 3-chloro-6-(2,2-difluoro-6-(methoxycarbonyl)benzo[d][1,3]dioxol-4-yl)-5-fluoropicolinate]
60 to 74%: [12]
0 to 29%: [1] | [2] | [3] | [4] | [5] | [6] | [7] | [8] | [9] | [10] | [11] | [13] | [14] | [15]

COC(=O)c1cc2c(c(-c3ccc(Cl)c(C(=O)OC)n3)c1)OC(F)(F)O2 [F245, Methyl 3-chloro-6-(2,2-difluoro-6-(methoxycarbonyl)benzo[d][1,3]dioxol-4-yl)picolinate]
45 to 59%: [15]
75 to 84%: [6]
85 to 94%: [2] | [12]
0 to 29%: [1] | [3] | [4] | [5] | [7] | [8] | [9] | [10] | [11] | [13] | [14]

COC(=O)c1nc(-c2cc(F)c(C(F)(F)F)cc2Cl)c(Cl)cc1Cl [F246, Methyl 3,5-dichloro-6-(2-chloro-5-fluoro-4-(trifluoromethyl)phenyl)picolinate]
85 to 94%: [11]
45 to 59%: [9]
0 to 29%: [1] | [4] | [7] | [8] | [14]
75 to 84%: [3] | [5] | [10]
60 to 74%: [15]
95 to 100%: [2] | [6] | [12] | [13]

COC(=O)c1nc(-c2ccc(N)cc2)c(F)cc1Cl [F247, Methyl 6-(4-aminophenyl)-3-chloro-5-fluoropicolinate]
0 to 29%: [1] | [2] | [3] | [4] | [5] | [6] | [7] | [8] | [9] | [10] | [11] | [13] | [14] | [15]
60 to 74%: [12]

COC(=O)c1nc(-c2ccc(SC)cc2)c(F)cc1Cl [F248, Methyl 3-chloro-5-fluoro-6-(4-(methylthio)phenyl) picolinate]
30 to 44%: [2]
0 to 29%: [1] | [3] | [4] | [5] | [6] | [7] | [8] | [9] | [10] | [12] | [13] | [14] | [15]
60 to 74%: [11]

COC(=O)c1nc(-c2ccc(C)cc2)c(F)cc1Cl [F249, Methyl 3-chloro-5-fluoro-6-(p-tolyl)picolinate]
0 to 29%: [1] | [2] | [3] | [4] | [5] | [6] | [7] | [8] | [9] | [10] | [11] | [13] | [14] | [15]
60 to 74%: [12]

COC(=O)c1nc(-c2c(C)cc(C(F)(F)F)cc2Cl)ccc1Cl [F250, Methyl 3-chloro-6-(2-chloro-6-methyl-4-(trifluoromethyl)phenyl) picolinate]
45 to 59%: [5] | [8]
85 to 94%: [6] | [11]
60 to 74%: [10]
0 to 29%: [1] | [3] | [4] | [7] | [9] | [13] | [14] | [15]
75 to 84%: [12]
95 to 100%: [2]
